Tests used:
[1] = xn = mol fraction of the nth substance listed; details: 101 kPa, Liquid, Vibrating tube method
[2] = refractive index (Na D-line) (dimensionless); xn = mol fraction of the nth substance listed; details: 101 kPa, Liquid, Standard Abbe refractometry

C1CCC(NC2CCCCC2)CC1 [N-cyclohexylcyclohexanamine] + CCCO
Details | mass density, [1] [kg/m3] | refractive index, [2]
288.15 K, x2 = 0 | 915.498 | 1.48636
288.15 K, x2 = 0.0527 | 914.71 | 1.48522
288.15 K, x2 = 0.1009 | 913.805 | 1.48396
288.15 K, x2 = 0.2004 | 911.438 | 1.48074
288.15 K, x2 = 0.3002 | 908.197 | 1.47672
288.15 K, x2 = 0.4003 | 903.914 | 1.47182
288.15 K, x2 = 0.5005 | 898.063 | 1.46554
288.15 K, x2 = 0.6 | 889.96 | 1.45743
288.15 K, x2 = 0.6998 | 878.617 | 1.44689
288.15 K, x2 = 0.8 | 862.501 | 1.4327
288.15 K, x2 = 0.8999 | 839.78 | 1.41365
288.15 K, x2 = 0.9491 | 825.362 | 1.40206
293.15 K, x2 = 0 | 911.705 | 1.48416
293.15 K, x2 = 0.0527 | 910.893 | 1.48299
293.15 K, x2 = 0.1009 | 909.957 | 1.48175
293.15 K, x2 = 0.2004 | 907.522 | 1.47851
293.15 K, x2 = 0.3002 | 904.203 | 1.47445
293.15 K, x2 = 0.4003 | 899.835 | 1.4695
293.15 K, x2 = 0.5005 | 893.905 | 1.4632
293.15 K, x2 = 0.6 | 885.737 | 1.45509
293.15 K, x2 = 0.6998 | 874.377 | 1.44458
293.15 K, x2 = 0.8 | 858.315 | 1.43047
293.15 K, x2 = 0.8999 | 835.696 | 1.41145
293.15 K, x2 = 0.9491 | 821.334 | 1.39989
298.15 K, x2 = 0 | 907.923 | 1.48198
298.15 K, x2 = 0.0527 | 907.079 | 1.48079
298.15 K, x2 = 0.1009 | 906.116 | 1.47952
298.15 K, x2 = 0.2004 | 903.612 | 1.47626
298.15 K, x2 = 0.3002 | 900.208 | 1.47217
298.15 K, x2 = 0.4003 | 895.758 | 1.46722
298.15 K, x2 = 0.5005 | 889.747 | 1.46088
298.15 K, x2 = 0.6 | 881.518 | 1.45273
298.15 K, x2 = 0.6998 | 870.137 | 1.44226
298.15 K, x2 = 0.8 | 854.115 | 1.4282
298.15 K, x2 = 0.8999 | 831.592 | 1.40927
298.15 K, x2 = 0.9491 | 817.281 | 1.3977
303.15 K, x2 = 0 | 904.144 | 1.47978
303.15 K, x2 = 0.0527 | 903.271 | 1.47861
303.15 K, x2 = 0.1009 | 902.276 | 1.47729
303.15 K, x2 = 0.2004 | 899.7 | 1.47402
303.15 K, x2 = 0.3002 | 896.218 | 1.4699
303.15 K, x2 = 0.4003 | 891.683 | 1.46491
303.15 K, x2 = 0.5005 | 885.59 | 1.45856
303.15 K, x2 = 0.6 | 877.299 | 1.4504
303.15 K, x2 = 0.6998 | 865.887 | 1.43992
303.15 K, x2 = 0.8 | 849.899 | 1.42592
303.15 K, x2 = 0.8999 | 827.461 | 1.40709
303.15 K, x2 = 0.9491 | 813.202 | 1.39547
308.15 K, x2 = 0 | 900.372 | 1.47761
308.15 K, x2 = 0.0527 | 899.466 | 1.47642
308.15 K, x2 = 0.1009 | 898.437 | 1.47508
308.15 K, x2 = 0.2004 | 895.78 | 1.47179
308.15 K, x2 = 0.3002 | 892.225 | 1.46765
308.15 K, x2 = 0.4003 | 887.605 | 1.46262
308.15 K, x2 = 0.5005 | 881.429 | 1.45625
308.15 K, x2 = 0.6 | 873.074 | 1.44805
308.15 K, x2 = 0.6998 | 861.626 | 1.43759
308.15 K, x2 = 0.8 | 845.662 | 1.42358
308.15 K, x2 = 0.8999 | 823.3 | 1.40482
308.15 K, x2 = 0.9491 | 809.088 | 1.39323
313.15 K, x2 = 0 | 896.608 | 1.47562
313.15 K, x2 = 0.0527 | 895.664 | 1.4743
313.15 K, x2 = 0.1009 | 894.6 | 1.47287
313.15 K, x2 = 0.2004 | 891.876 | 1.4695
313.15 K, x2 = 0.3002 | 888.227 | 1.46533
313.15 K, x2 = 0.4003 | 883.521 | 1.46024
313.15 K, x2 = 0.5005 | 877.263 | 1.45383
313.15 K, x2 = 0.6 | 868.843 | 1.44565
313.15 K, x2 = 0.6998 | 857.35 | 1.43509
313.15 K, x2 = 0.8 | 841.4 | 1.42112
313.15 K, x2 = 0.8999 | 819.106 | 1.40242
313.15 K, x2 = 0.9491 | 804.934 | 1.39093
318.15 K, x2 = 0 | 892.847 | 1.47347
318.15 K, x2 = 0.0527 | 891.862 | 1.47211
318.15 K, x2 = 0.1009 | 890.759 | 1.47068
318.15 K, x2 = 0.2004 | 887.957 | 1.4673
318.15 K, x2 = 0.3002 | 884.225 | 1.46306
318.15 K, x2 = 0.4003 | 879.43 | 1.45795
318.15 K, x2 = 0.5005 | 873.086 | 1.45151
318.15 K, x2 = 0.6 | 864.613 | 1.44331
318.15 K, x2 = 0.6998 | 853.054 | 1.43279
318.15 K, x2 = 0.8 | 837.107 | 1.41883
318.15 K, x2 = 0.8999 | 814.869 | 1.40021
318.15 K, x2 = 0.9491 | 800.736 | 1.38876
323.15 K, x2 = 0 | 889.089 | 1.47134
323.15 K, x2 = 0.0527 | 888.061 | 1.46997
323.15 K, x2 = 0.1009 | 886.919 | 1.46853
323.15 K, x2 = 0.2004 | 884.032 | 1.4651
323.15 K, x2 = 0.3002 | 880.209 | 1.46087
323.15 K, x2 = 0.4003 | 875.326 | 1.4557
323.15 K, x2 = 0.5005 | 868.893 | 1.4492
323.15 K, x2 = 0.6 | 860.363 | 1.44112
323.15 K, x2 = 0.6998 | 848.736 | 1.43046
323.15 K, x2 = 0.8 | 832.782 | 1.41649
323.15 K, x2 = 0.8999 | 810.587 | 1.39788
323.15 K, x2 = 0.9491 | 796.489 | 1.38638

Reference: the NIST ThermoML archive (doi:10.1016/j.tca.2011.08.002)
